Source: BigSolDB 2.1

O=C(O)c1cccc(C(=O)O)c1
solubility (mole fraction)
Details	283.15 K	288.15 K	293.15 K	298.15 K	303.15 K	308.15 K	313.15 K	318.15 K	323.15 K
in ethanol	0.00328	0.00369	0.00406	0.00451	0.005	0.00559	0.00616	0.00682	0.00752
in methanol	0.00269	0.00304	0.00342	0.00376	0.00422	0.00473	0.00527	0.0059	0.00654
in n-propanol	0.00287	0.0032	0.00362	0.00415	0.00472	0.00533	0.00603	0.00689	0.00774
